Blank lines part the entries; values can stand above or below the compound they belong to. The source made the active and inactive calls. The rule behind the calls is not given here.
What was measured:
[1] = Stability in mouse liver microsome assessed as half life at 1 uM measured for 60 mins by LC-MS/MS analysis; format: ADME; conditions: liver microsomes
[2] = Stability in human liver microsome assessed as half life at 1 uM measured for 60 mins by LC-MS/MS analysis; format: ADME; conditions: liver microsomes
[3] = Stability in human liver microsome assessed as intrinsic clearance at 1 uM measured for 60 mins by LC-MS/MS analysis; format: ADME; conditions: liver microsomes, read-out: CLH
[4] = Stability in mouse liver microsome assessed as intrinsic clearance at 1 uM measured for 60 mins by LC-MS/MS analysis; format: ADME; conditions: liver microsomes, read-out: CLH
CYP1A2 [5] = target: T1, CYP1A2 (Homo sapiens, UniProt P05177); test: Inhibition of CYP1A2 in liver microsomes (unknown origin) at 10 uM incubated for 10 mins relative to control; format: ADME, Microsome
T1 sequence (P05177 whole entry): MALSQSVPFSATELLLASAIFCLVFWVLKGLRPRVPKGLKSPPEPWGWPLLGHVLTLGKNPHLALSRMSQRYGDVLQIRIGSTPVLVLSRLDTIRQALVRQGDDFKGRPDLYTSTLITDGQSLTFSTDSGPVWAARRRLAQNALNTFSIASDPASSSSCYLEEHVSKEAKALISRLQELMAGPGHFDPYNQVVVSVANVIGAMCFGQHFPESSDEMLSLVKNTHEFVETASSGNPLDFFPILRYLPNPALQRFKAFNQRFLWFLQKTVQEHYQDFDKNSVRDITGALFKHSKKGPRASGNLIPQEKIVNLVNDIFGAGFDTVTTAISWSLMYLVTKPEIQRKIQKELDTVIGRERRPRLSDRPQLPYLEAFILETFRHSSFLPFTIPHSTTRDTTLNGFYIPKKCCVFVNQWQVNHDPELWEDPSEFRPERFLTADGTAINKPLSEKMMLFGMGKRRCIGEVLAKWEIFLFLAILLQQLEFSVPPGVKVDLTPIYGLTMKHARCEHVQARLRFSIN

CYP2C9 = CYP2C9 (Homo sapiens, UniProt P11712); test: Inhibition of CYP2C9 in liver microsomes (unknown origin) at 10 uM incubated for 10 mins relative to control; format: ADME, Microsome
HCT-116 = test: cells; conditions: Homo sapiens
MCF7 = test: cells; format: functional, cell-based; conditions: Homo sapiens
NAMALVA [6] = test: cells; conditions: Homo sapiens
[7] = target: T2, Protein deacetylase HDAC6 (Homo sapiens) (UniProt Q9UBN7); test: Inhibition of HDAC6 in human U-937 cells assessed as increase in acetyl-histone H3 level at IC50 incubated for 48 hrs by Western blot analysis; format: cell-based
T2 sequence (whole entry): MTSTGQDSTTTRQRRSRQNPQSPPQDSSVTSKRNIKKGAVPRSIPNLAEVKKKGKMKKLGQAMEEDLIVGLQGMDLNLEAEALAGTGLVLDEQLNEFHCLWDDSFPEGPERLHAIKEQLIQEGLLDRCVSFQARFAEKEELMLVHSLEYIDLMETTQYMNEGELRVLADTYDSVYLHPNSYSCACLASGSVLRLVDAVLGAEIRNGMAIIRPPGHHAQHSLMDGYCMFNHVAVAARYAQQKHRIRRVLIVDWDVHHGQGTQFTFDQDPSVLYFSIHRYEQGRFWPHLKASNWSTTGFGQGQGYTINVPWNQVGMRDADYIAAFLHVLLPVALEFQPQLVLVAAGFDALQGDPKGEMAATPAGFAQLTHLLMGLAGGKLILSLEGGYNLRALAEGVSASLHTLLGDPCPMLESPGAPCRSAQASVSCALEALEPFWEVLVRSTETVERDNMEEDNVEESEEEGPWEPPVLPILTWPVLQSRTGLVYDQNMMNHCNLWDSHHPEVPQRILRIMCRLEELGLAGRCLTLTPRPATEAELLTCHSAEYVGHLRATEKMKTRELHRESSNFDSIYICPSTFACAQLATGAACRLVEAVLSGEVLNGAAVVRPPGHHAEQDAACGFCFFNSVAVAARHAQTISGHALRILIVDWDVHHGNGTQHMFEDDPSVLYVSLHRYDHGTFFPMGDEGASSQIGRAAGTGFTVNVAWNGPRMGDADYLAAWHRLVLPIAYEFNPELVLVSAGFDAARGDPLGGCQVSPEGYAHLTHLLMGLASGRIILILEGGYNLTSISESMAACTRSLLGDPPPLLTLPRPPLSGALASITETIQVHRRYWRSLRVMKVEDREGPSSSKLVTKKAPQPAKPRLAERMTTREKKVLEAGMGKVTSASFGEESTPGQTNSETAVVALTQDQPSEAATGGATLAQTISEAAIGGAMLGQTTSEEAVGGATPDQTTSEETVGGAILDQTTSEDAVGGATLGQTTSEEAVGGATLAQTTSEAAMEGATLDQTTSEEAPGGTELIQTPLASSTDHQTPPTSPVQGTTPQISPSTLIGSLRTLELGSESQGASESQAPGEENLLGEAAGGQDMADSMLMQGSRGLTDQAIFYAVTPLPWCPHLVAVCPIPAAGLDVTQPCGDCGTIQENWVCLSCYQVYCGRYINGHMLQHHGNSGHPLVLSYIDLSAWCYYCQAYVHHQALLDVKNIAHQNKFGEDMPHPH

[8] = target: T2, Protein deacetylase HDAC6 (Homo sapiens); test: Inhibition of HDAC6 in human NAMALVA cells assessed as increase in acetyl-alpha-tubulin level at IC50 incubated for 48 hrs by Western blot analysis; format: cell-based
Jurkat [9] = test: Inhibition of cell proliferation of human Jurkat cells assessed as reduction in Ki-67 expression at IC50 measured after 48 hrs by flow cytometry; format: functional, cell-based
Jurkat [10] = test: Induction of apoptosis in human Jurkat cells at IC50 measured after 48 hrs by flow cytometry; format: functional, cell-based
[11] = target: T2, Protein deacetylase HDAC6 (Homo sapiens); test: Inhibition of HDAC6 in human Jurkat cells assessed as increase in acetyl-histone H3 level at IC50 incubated for 48 hrs by Western blot analysis; format: cell-based
U-937 [12] = test: Cytotoxicity against human U-937 cells assessed as cell growth inhibition incubated for 24 to 72 hrs by MTT assay; format: functional, cell-based; conditions: time lower 24.0 hrs, time upper […]
Jurkat [13] = test: Cytotoxicity against human Jurkat cells assessed as cell growth inhibition at 0.03 to 1.8 uM by MTT assay; format: functional, cell-based; conditions: dose 0.03-1.8 µM, time lower 24.0 hrs, time upper […], TDE = time-dependent effect
NAMALVA [14] = test: Cytotoxicity against human NAMALVA cells assessed as cell growth inhibition at 0.04 to 17.4 uM by MTT assay; format: functional, cell-based; conditions: dose 0.04-17.4 µM, time lower 24.0 hrs, time upper […], TDE = time-dependent effect
NAMALVA [15] = test: Inhibition of cell proliferation of human NAMALVA cells assessed as reduction in Ki-67 expression at IC50 measured after 48 hrs by flow cytometry; format: functional, cell-based
U-937 [16] = test: Cytotoxicity against human U-937 cells assessed as cell growth inhibition at 1.6 to 6.4 uM by MTT assay; format: functional, cell-based; conditions: dose 1.6-6.4 µM, time lower 24.0 hrs, time upper […], TDE = time-dependent effect
[17] = target: T3, Protein deacetylase HDAC6 (Homo sapiens, UniProt Q9UBN7); test: Inhibition of full-length recombinant human HDAC6 expressed in baculovirus infected Sf9 cells using RHKK(Ac)AMC as substrate preincubated for 5 to 10 mins followed by substrate addition measured after 2 hrs by fluorescence based assay
T3 sequence (Q9UBN7 whole entry): T2 sequence (whole entry)

[18] = target: T2, Protein deacetylase HDAC6 (Homo sapiens); test: Inhibition of HDAC6 in human U-937 cells assessed as increase in acetyl-alpha-tubulin level at IC50 incubated for 48 hrs by Western blot analysis; format: cell-based
Jurkat [19] = test: cells; conditions: Homo sapiens
CYP2D6 = CYP2D6 (Homo sapiens, UniProt P10635); test: Inhibition of CYP2D6 in liver microsomes (unknown origin) at 10 uM incubated for 10 mins relative to control; format: ADME, Microsome
U-937 [20] = test: Induction of apoptosis in human U-937 cells at IC50 measured after 48 hrs by flow cytometry; format: functional, cell-based
[21] = target: T2, Protein deacetylase HDAC6 (Homo sapiens); test: Inhibition of HDAC6 in human Jurkat cells assessed as increase in acetyl-alpha-tubulin level at IC50 incubated for 48 hrs by Western blot analysis; format: cell-based
[22] = target: T2, Protein deacetylase HDAC6 (Homo sapiens); test: Inhibition of HDAC6 in human NAMALVA cells assessed as increase in acetyl-histone H3 level at IC50 incubated for 48 hrs by Western blot analysis; format: cell-based
NAMALVA [23] = test: Induction of apoptosis in human NAMALVA cells at IC50 measured after 48 hrs by flow cytometry; format: functional, cell-based
U-937 [24] = test: Inhibition of cell proliferation of human U-937 cells assessed as reduction in Ki-67 expression at IC50 measured after 48 hrs by flow cytometry; format: functional, cell-based
CYP1A2 [25] = target: T1, CYP1A2; test: Inhibition of CYP1A2 in liver microsomes (unknown origin) at 40 uM incubated for 10 mins relative to control; format: ADME, Microsome

CYP2D6, sequence (P10635 whole entry): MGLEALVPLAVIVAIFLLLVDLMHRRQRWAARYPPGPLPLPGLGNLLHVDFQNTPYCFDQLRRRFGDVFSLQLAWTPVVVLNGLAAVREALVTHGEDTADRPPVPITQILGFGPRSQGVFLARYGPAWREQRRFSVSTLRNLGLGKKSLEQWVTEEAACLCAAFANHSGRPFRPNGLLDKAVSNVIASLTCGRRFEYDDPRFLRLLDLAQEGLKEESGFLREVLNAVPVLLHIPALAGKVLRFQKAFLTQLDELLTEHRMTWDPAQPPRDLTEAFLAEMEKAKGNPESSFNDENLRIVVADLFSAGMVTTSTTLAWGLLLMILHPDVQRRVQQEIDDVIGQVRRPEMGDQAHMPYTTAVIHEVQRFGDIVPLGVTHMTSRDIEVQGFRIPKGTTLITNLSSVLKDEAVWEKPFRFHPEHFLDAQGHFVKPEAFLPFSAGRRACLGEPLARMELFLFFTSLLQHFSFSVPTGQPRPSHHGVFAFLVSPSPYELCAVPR
CYP2C9, sequence (P11712 whole entry): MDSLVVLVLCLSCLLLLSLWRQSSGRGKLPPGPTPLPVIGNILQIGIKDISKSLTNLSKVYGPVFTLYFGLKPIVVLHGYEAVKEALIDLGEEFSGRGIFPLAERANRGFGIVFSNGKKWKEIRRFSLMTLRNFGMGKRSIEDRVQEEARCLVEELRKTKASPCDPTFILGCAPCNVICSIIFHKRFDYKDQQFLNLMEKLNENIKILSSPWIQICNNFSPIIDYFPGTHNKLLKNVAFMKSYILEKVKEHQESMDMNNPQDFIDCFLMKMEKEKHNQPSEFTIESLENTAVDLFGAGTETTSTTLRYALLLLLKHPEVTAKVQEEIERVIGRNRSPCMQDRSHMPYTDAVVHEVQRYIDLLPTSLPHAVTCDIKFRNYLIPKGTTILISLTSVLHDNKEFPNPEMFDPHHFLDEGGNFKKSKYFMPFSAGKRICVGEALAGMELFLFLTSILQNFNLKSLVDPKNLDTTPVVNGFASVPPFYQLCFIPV

Compound: CCN(CC)CCNC(=O)c1c(C)[nH]c(/C=C2\C(=O)Nc3ccc(F)cc32)c1C [SUNITINIB]
- half-life at 1 µM [1]: 12 min
- half-life at 1 µM [2]: 33 min
- microsomal CLint at 1 µM [3]: 21 µL/min/mg
- microsomal CLint at 1 µM [4]: 58 µL/min/mg

Compound: CC(=O)N1CCN(c2ccc(OCC3COC(Cn4ccnc4)(c4ccc(Cl)cc4Cl)O3)cc2)CC1 (centres undefined) [KETOCONAZOLE]
- inhibition at 10 min, 10 µM (CYP1A2 [5]): 10%
- inhibition at 10 min, 10 µM (CYP2C9): 10%

Compound: Cc1nc2c([nH]1)c(=O)n(C)c(=O)n2Cc1ccco1 [FURAFYLLINE]
- inhibition at 10 min, 40 µM (CYP1A2 [25]): 78%
- inhibition at 10 min, 10 µM (CYP2C9): 10%
- inhibition at 10 min, 10 µM (CYP2D6): 10%

Compound: Nc1ccc(S(=O)(=O)Nc2ccnn2-c2ccccc2)cc1 [SULFAPHENAZOLE]
- inhibition at 10 min, 10 µM (CYP1A2 [5]): 10%
- inhibition at 10 min, 10 µM (CYP2D6): 10%

The next lines start with results.

- IC50 (HCT-116): > 50000 nM
- IC50 (MCF7): > 50000 nM
- IC50 (NAMALVA [6]): 800 nM
Compound: COc1cc(Nc2ncnc3c2ncn3Cc2ccc(C(=O)NO)cc2)cc(OC)c1OC

- inhibition [7]: Active
- inhibition at 10 min, 10 µM (CYP1A2 [5]): 47%
- inhibition [8]: Active
- IC50 (HCT-116): 21700 nM
- inhibition [11]: Active
- half-life at 1 µM [1]: 35 min
- IC50 (MCF7): 21700 nM
- inhibition at 10 min, 10 µM (CYP2C9): 42%
- IC50 [17]: 184 nM
- half-life at 1 µM [2]: > 120 min
- microsomal CLint at 1 µM [3]: < 6 µL/min/mg
- IC50 (NAMALVA [6]): 40 nM
- inhibition [18]: Active
- IC50 (Jurkat [19]): 30 nM
- inhibition at 10 min, 10 µM (CYP2D6): 10%
- microsomal CLint at 1 µM [4]: 20 µL/min/mg
- inhibition [21]: Active
- inhibition [22]: Active
Compound: O=C(NO)c1ccc(Cn2cnc3c(Nc4ccc(Br)cc4F)ncnc32)cc1
- inhibition (Jurkat [9]): Active
- Activity (Jurkat [10]): Active
- inhibition (U-937 [12]): Dose-Dependent Effect
- inhibition (Jurkat [13]): Tde
- inhibition (NAMALVA [14]): Tde
- inhibition (NAMALVA [15]): Active
- inhibition (U-937 [16]): Tde
- Activity (U-937 [20]): Active
- Activity (NAMALVA [23]): Active
- inhibition (U-937 [24]): Active

- inhibition at 10 min, 10 µM (CYP1A2 [5]): 10%
- inhibition at 10 min, 10 µM (CYP2C9): 10%
- inhibition at 10 min, 10 µM (CYP2D6): 86%
Compound: C=C[C@H]1C[N@@]2CC[C@H]1C[C@@H]2[C@@H](O)c1ccnc2ccc(OC)cc12 [QUINIDINE]

- IC50 (HCT-116): 2900 nM
- IC50 (MCF7): 13200 nM
- IC50 (NAMALVA [6]): 260 nM
- IC50 (Jurkat [19]): 250 nM
Compound: O=C(NO)c1ccc(Cn2cnc3c(Nc4ccc(Cl)c(C(F)(F)F)c4)ncnc32)cc1
